Experimental data: ChEMBL document CHEMBL5252581, “Using a Bioactive Eremophila-Derived Serrulatane Scaffold to Generate a Unique Carbamate Library for Anti-infective Evaluations” (J Nat Prod, 2023)
pEC50, pIC50: −log10 of the molar value.

What was measured:
Haemonchus contortus [1] = test: Anthelmintic activity against third stage larvae of Haemonchus contortus assessed as reduction in larval motility measured at 168 hrs by microscope based analysis; type: functional, organism-based
Plasmodium falciparum [2] = test: Antimalarial activity against multidrug resistant Plasmodium falciparum Dd2 assessed as parasite growth inhibition at 80 uM incubated for 72 hrs by DAPI staining method; type: functional
Haemonchus contortus [3] = test: Anthelmintic activity against Haemonchus contortus assessed as inhibition of L4 development at 50 uM measured at 168 hrs by microscope based analysis relative to control; type: functional
Haemonchus contortus [4] = test: Anthelmintic activity against Haemonchus contortus assessed as induction of skinny phenotype at 50 uM measured at 168 hrs by microscope based analysis; type: functional
[5] = test system: Human immunodeficiency virus 1; test: Reversal of HIV-1 latency infected in GFP-fused human J-Lat 10.6 cells assessed as inhibition of 160 nM PMA-induced HIV production at 100 ug/ml incubated for 24 hrs by flow cytometry analysis relative to control; type: functional; details: Human immunodeficiency virus 1, J-Lat 10.6
[6] = Cytotoxicity against HEK293 cells assessed as inhibition of cell growth at 80 uM incubated for 72 hrs by alamar blue dye based fluorescence assay relative to control; type: toxicity; details: human
Haemonchus contortus [7] = test: Anthelmintic activity against third stage larvae of Haemonchus contortus assessed as reduction in larval motility at 50 uM measured at 168 hrs by microscope based analysis relative to control; type: functional; parameters: scale not given: the % may be the effect or the level left
Plasmodium falciparum [8] = test: Antimalarial activity against chloroquine sensitive Plasmodium falciparum 3D7 assessed as parasite growth inhibition at 80 uM incubated for 72 hrs by DAPI staining method; type: functional
Plasmodium falciparum [9] = test: Antimalarial activity against chloroquine sensitive Plasmodium falciparum 3D7 assessed as parasite growth inhibition incubated for 72 hrs by DAPI staining method; type: functional, organism-based; details: 3D7, 72 h
[10] = Selectivity index, ratio of IC50 for cytotoxicity against HEK293 cells to IC50 for antimalarial activity against multidrug resistant Plasmodium falciparum Dd2; type: toxicity, cell-based; details: human, read-out: Ratio IC50
[11] = Selectivity index, ratio of IC50 for cytotoxicity against HEK293 cells to IC50 for antimalarial activity against chloroquine sensitive Plasmodium falciparum 3D7; type: toxicity, cell-based; details: human, read-out: Ratio IC50
[12] = Resistance index, ratio of IC50 for antimalarial activity against multidrug resistant Plasmodium falciparum Dd2 to IC50 for antimalarial activity against chloroquine sensitive Plasmodium falciparum 3D7; type: toxicity
Plasmodium falciparum [13] = test: Antimalarial activity against multidrug resistant Plasmodium falciparum Dd2 assessed as parasite growth inhibition incubated for 72 hrs by DAPI staining method; type: functional, organism-based; details: Dd2, 72 h
[14] = test system: Human immunodeficiency virus 1; test: Reversal of HIV-1 latency infected in GFP-fused human J-Lat 10.6 cells assessed as inhibition of 160 nM PMA-induced HIV production incubated for 24 hrs by flow cytometry analysis; type: functional, organism-based; details: Human immunodeficiency virus 1, J-Lat 10.6, 24 h
Haemonchus contortus [15] = test: Anthelmintic activity against fourth stage larvae of Haemonchus contortus assessed as midbody width of L4 larvae measured after 7 days by microscopic analysis (reference value: 16.3+/-1.5 uM); type: functional; details: time 7 day
Haemonchus contortus [16] = test: Anthelmintic activity against fourth stage larvae of Haemonchus contortus assessed as induction of skinny phenotype at 100 uM measured after 7 days relative to control; type: functional; details: time 7 day
Haemonchus contortus [17] = test: Anthelmintic activity against fourth stage larvae of Haemonchus contortus assessed as induction of skinny phenotype measured after 7 days; type: functional, organism-based; details: 168 h
[18] = test system: Human immunodeficiency virus 1; test: Reversal of HIV-1 latency infected in GFP-fused human J-Lat 10.6 cells assessed as inhibition of 50 nM PMA-induced HIV production by flow cytometry analysis; type: functional, organism-based; details: Human immunodeficiency virus 1, J-Lat 10.6
[19] = Cytotoxicity against HEK293 cells assessed as inhibition of cell growth incubated for 72 hrs by alamar blue dye based fluorescence assay; type: toxicity; details: human

| SMILES | pIC50 (Haemonchus contortus [1]) | inhibition at 80 µM (Plasmodium falciparum [2]) [%] | inhibition at 50 µM (Haemonchus contortus [3]) [%] | Activity (Haemonchus contortus [4]) [%] | inhibition at 100 µg/mL [5] [%] | inhibition at 72 h, 80 µM [6] [%] | Activity (Haemonchus contortus [7]) [%] | inhibition at 80 µM (Plasmodium falciparum [8]) [%] | pIC50 (Plasmodium falciparum [9]) | selectivity ratio [10] | selectivity ratio [11] | Ratio IC50 [12] | pIC50 (Plasmodium falciparum [13]) | pEC50 [14] | Activity (Haemonchus contortus [15]) [µM] | Activity (Haemonchus contortus [16]) [%] | pIC50 (Haemonchus contortus [17]) | pEC50 [18] | IC50 at 72 h [19] [µM] |
| --- | --- | --- | --- | --- | --- | --- | --- | --- | --- | --- | --- | --- | --- | --- | --- | --- | --- | --- | --- |
| CC(C)=CCC[C@H](C)[C@H]1c2cc(C(=O)O)c(O)c(O)c2[C@H](C)C[C@H]1O | 5.44 | < 41 | 4 | 0 | < 10 | 8 | 16.9 | < 41 | – | – | – | – | – | – | – | – | – | – | – |
| COC(=O)c1cc2c(c(OC)c1OC)[C@H](C)C[C@@H](OC(=O)Nc1ccccc1)[C@H]2[C@@H](C)CCC=C(C)C | < 4.30 | > 41 | 4 | 0 | 29.3 | 47 | 9.6 | – | 4.94 | 6.3 | 6.9 | 1.1 | – | – | – | – | – | – | – |
| COC(=O)c1cc2c(c(OC)c1OC)[C@H](C)C[C@@H](OC(=O)Nc1ccc(C)cc1)[C@H]2[C@@H](C)CCC=C(C)C | 5.15 | – | 2.3 | 0 | 36.8 | 12 | 12.9 | – | 4.91 | 6.2 | 6.6 | 1.1 | 4.89 | – | – | – | – | – | – |
| COC(=O)c1cc2c(c(OC)c1OC)[C@H](C)C[C@@H](OC(=O)NCc1ccccc1)[C@H]2[C@@H](C)CCC=C(C)C | 6.40 | > 41 | -4.4 | 0 | < 10 | 24 | 44.7 | > 41 | – | – | – | – | – | – | – | – | – | – | – |
| COC(=O)c1cc2c(c(OC)c1OC)[C@H](C)C[C@@H](O)[C@H]2[C@@H](C)CCC=C(C)C | 5.31 | > 41 | 5.3 | 59.1 | 66.5 | 4 | 28.3 | > 41 | – | – | – | – | – | 3.84 | 8.8 | 78.4 | 4.87 | 4.42 | – |
| COC(=O)c1cc2c(c(OC)c1OC)[C@H](C)C[C@@H](OC(=O)Nc1ccc(C#N)cc1)[C@H]2[C@@H](C)CCC=C(C)C | 5.05 | < 41 | 12 | 1.7 | 59 | 2 | 6.8 | < 41 | – | – | – | – | – | 4.01 | – | – | – | – | – |
| COC(=O)c1cc2c(c(OC)c1OC)[C@H](C)C[C@@H](OC(=O)NS(=O)(=O)c1ccc(C)cc1)[C@H]2[C@@H](C)CCC=C(C)C | 5.21 | > 41 | 21.7 | 67.5 | 20.7 | 11 | 15.6 | > 41 | – | – | – | – | – | – | – | – | – | – | – |
| COC(=O)c1cc2c(c(OC)c1OC)[C@H](C)C[C@@H](OC(=O)Nc1ccc(Cl)cc1)[C@H]2[C@@H](C)CCC=C(C)C | 5.74 | – | 2.5 | 0 | 31.7 | 3.1 | 26.4 | – | 4.93 | 6.1 | 6.9 | – | 4.88 | – | – | – | – | – | – |
| COC(=O)c1cc2c(c(OC)c1OC)[C@H](C)C[C@@H](OC(=O)Nc1ccc(F)cc1)[C@H]2[C@@H](C)CCC=C(C)C | 4.50 | – | 3.2 | 0 | 28.7 | 25 | 36.2 | – | 5.06 | 7.4 | 9.2 | 1.2 | 4.97 | – | – | – | – | – | – |
| COC(=O)c1cc2c(c(OC)c1OC)[C@H](C)C[C@@H](OC(=O)Nc1cccc(Cl)c1)[C@H]2[C@@H](C)CCC=C(C)C | 5.80 | – | 7.1 | 0 | 37.2 | 42 | 39.1 | – | 5.04 | 8.7 | 8.8 | 1 | 5.04 | – | – | – | – | – | – |
| COC(=O)c1cc2c(c(OC)c1OC)[C@H](C)C[C@@H](OC(=O)Nc1ccc(OC)cc1)[C@H]2[C@@H](C)CCC=C(C)C | < 4.30 | – | 2 | 0 | 22.9 | 26 | 18.3 | – | 5.03 | 7.9 | 8.6 | 1.1 | 5.00 | – | – | – | – | – | – |
| COC(=O)c1cc2c(c(OC)c1OC)[C@H](C)C[C@@H](OC(=O)Nc1cc(C(F)(F)F)cc(C(F)(F)F)c1)[C@H]2[C@@H](C)CCC=C(C)C | 6.10 | – | 3.6 | 0 | 39.1 | 34 | 16.9 | – | 5.34 | 6.9 | 17.5 | 2.5 | 4.94 | – | – | – | – | – | – |
| COC(=O)c1cc2c(c(OC)c1OC)[C@H](C)C[C@@H](OC(=O)Nc1ccc([N+](=O)[O-])cc1)[C@H]2[C@@H](C)CCC=C(C)C | 5.19 | – | 4.8 | 60 | 43.5 | 52 | 30.4 | – | 5.12 | 7.5 | 5 | 1.3 | 4.97 | – | – | – | – | – | – |
| C[C@H]1[C@@H](O)O[C@@H]2O[C@@]3(C)CC[C@H]4[C@H](C)CC[C@@H]1[C@@]24OO3 [ARTENIMOL] | – | – | – | – | – | – | – | – | – | > 3080 | > 6680 | 2.2 | – | – | – | – | – | – | > 4 |
| CCN(CC)CCCC(C)Nc1ccnc2cc(Cl)ccc12 (stereo not given) [CHLOROQUINE] | – | – | – | – | – | – | – | – | – | – | – | – | – | – | – | – | – | – | > 10 |
| C[C@](C#N)(COc1cc(C#N)ccc1C(F)(F)F)NC(=O)c1ccc(SC(F)(F)F)cc1 [MONEPANTEL] | 6.70 | – | 98 | 0 | – | – | 99.2 | – | – | – | – | – | – | – | – | – | – | – | – |
| CO/N=C1\C[C@]2(C[C@@H]3C[C@@H](C/C=C(\C)C[C@@H](C)/C=C/C=C4\CO[C@@H]5[C@H](O)C(C)=C[C@@H](C(=O)O3)[C@]45O)O2)O[C@H](/C(C)=C/C(C)C)[C@H]1C [MOXIDECTIN] | 5.52 | – | 89.7 | 0 | – | – | 88.2 | – | – | – | – | – | – | – | – | – | – | – | – |
| COc1ccc(C[C@H](N)C(=O)N[C@H]2[C@@H](O)[C@H](n3cnc4c(N(C)C)ncnc43)O[C@@H]2CO)cc1 [PUROMYCIN] | – | – | – | – | – | – | – | – | 7.37 | 8.2 | 15.5 | 1.9 | 7.09 | – | – | – | – | – | 0.664 |
| CCc1nc(N)nc(N)c1-c1ccc(Cl)cc1 [PYRIMETHAMINE] | – | – | – | – | – | – | – | – | – | – | > 1010 | > 1010 | – | – | – | – | – | – | > 10 |
